This note sets out measurements from ChEMBL document CHEMBL3860042, “Nucleoside Phosphate and Phosphonate Prodrug Clinical Candidates” (J Med Chem, 2016).

Data set [1] can be described thus: Drug metabolism in PBMC (unknown origin) assessed as half life for active triphosphate formation. In kind it is ADME, cell-based.
Data set [2] is described as follows: Half life in rhesus monkey at 10 mg/kg, iv. In kind it is ADME, organism-based, Macaca mulatta. The following applies: in vivo.
The test system of data set [3] is Ebolavirus. Put plainly: Antiviral activity against Ebolavirus infected in rhesus monkey assessed as protection against viral disease administered intravenously as once daily regimen. Type of data set: functional.
For data set [4], the system named is Ebolavirus. The experiment in a line: Antiviral activity against Ebolavirus assessed as reduction in viral replication. Type of data set: functional. The following applies: Orthoebolavirus.
For data set [5], the system named is Ebolavirus. Put plainly: Antiviral activity against Ebolavirus infected in PBMC (unknown origin) assessed as reduction in viral replication after 24 hrs. In kind it is functional.
The nature of data set [6]: Tmax in human at 0.025 to 2 mg/kg dosed as single and multiple doses. In kind it is ADME, organism-based. To be noted: in vivo.
Data set [7] is described as follows: Half life in human at 0.025 mg/kg dosed as single and multiple doses. Type of data set: ADME, organism-based. The following applies: in vivo.
Data set [8] in a line: Half life in human at 1.5 mg/kg dosed as single and multiple doses. In kind it is ADME, organism-based. The following applies: in vivo.
A short description of data set [9]: Toxicity in patients with solid malignancies assessed as incidence of anemia. The following applies: human, in vivo.
Data set [10] can be described thus: Toxicity in patients with solid malignancies assessed as incidence of thrombocytopenia. To be noted: human, in vivo.
The species named for data set [11] is Mus musculus. Put plainly: Toxicity in mouse assessed as body weight loss. In kind it is organism-based. The following applies: in vivo.
The nature of data set [12]: Toxicity in patients with solid malignancies assessed as incidence of transaminitis. To be noted: human, in vivo.
Data set [13] is described as follows: Toxicity in patients with solid malignancies assessed as incidence of fatigue. To be noted: human, in vivo.

For orientation: half-life means how long it takes for the measured level to halve. By EC50 is commonly meant the concentration giving half of the maximal effect. Take `CCC(CC)OC(=O)[C@H](C)N[P@@](=O)(OC[C@H]1O[C@@](C#N)(c2ccc3c(N)ncnn23)[C@H](O)[C@@H]1O)Oc1ccccc1`: the t1/2 in data set [1] came to 14 h. In [2], the half-life is 0.39 h. Also, in data set [3], the Activity is given as 100%. The EC50 in [4] is 60 to 140 nM. The “inhibition (INH)” value in [5] is reported as greater than 50%.
The term Tmax denotes the time at which the peak concentration occurs. Turning to `CCCCCCCCCCCCCCCCOCCCOP(=O)(O)CO[C@H](CO)Cn1ccc(N)nc1=O` [BRINCIDOFOVIR], in [6], the Tmax lay in the range of 7 to 15 h. Further, the half-life in data set [7] was 6.15 h; in [8], 32.7 h.
In the case of `C[C@H](NP(=O)(OC[C@H]1O[C@@H](n2ccc(N)nc2=O)C(F)(F)[C@@H]1O)Oc1ccccc1)C(=O)OCc1ccccc1` (some centres undefined) [FOSGEMCITABINE PALABENAMIDE], the Activity is listed as 67% in data set [9]; 53% in [10]; less than 2% in data set [11]; 64% in [12]; 67% in [13].
As to `N#C[C@@]1(c2ccc3c(N)ncnn23)O[C@H](CO)[C@@H](O)[C@H]1O` [GS-441524], the EC50 in data set [4] lay in the range of 770 to 20000 nM.
